From patent US20060013906A1, “Anti-helicobacter activity of celery seed extract” (priority 2002, published 2006)
In brackets after ≈: the same amount, converted by molar mass.

Tested on: H. pylori (strain 3339)
Experiment: Broth dilution antimicrobial test, H. pylori strain 3339
Assay type: cell-based, Helicobacter pylori
Conditions: compounds from subfractions 6 and 10

| Compound | MBC | MIC |
| --- | --- | --- |
| CCCCC/C=C/C/C=C/CCCCCCCC(=O)O [Linoleic acid, cis, cis - 9,12- Octadecadienoic acid] | > 125 µg/mL | 62.5 µg/mL (≈ 223 µM) |
| CCCCC1OC(=O)C2=C1CCC=C2 (stereo not shown) [sedanenolide, 3-n-butyl 4,5-dihydrolphthalide] | 62.5 µg/mL (≈ 325 µM) | 31.2 µg/mL (≈ 163 µM) |
| α and β-Eudesmol | 125 µg/mL | 15.6 µg/mL |
| CCCCC1OC(=O)c2ccccc21 (stereo not shown) [3-n Butyl phthalide, 3-n-butyl phthalide] | – | 15.6 µg/mL (≈ 82.1 µM) |
